Among the data in article PMC11269731, “Pannexin-1 channel inhibition alleviates opioid withdrawal in rodents by modulating locus coeruleus to spinal cord circuitry” (Nature Communications, 2024) are IC50 values, retold here.

For this test, the target named is T1, Pannexin-1 (rPanx1) (Rattus norvegicus, UniProt P60570).
T1 construct: gene Panx1; Rattus norvegicus Pannexin-1 cDNA in pRK5 (pRK5-rPanx1)
Briefly: whole-cell patch clamp of HEK-293T cells transfected with rat Panx1. In kind it is cell-based. For orientation: The patch-clamp technique gives a direct electrical read-out from membranes.

Broadly, the IC50 is the point on the concentration scale where inhibition reaches its midpoint.

T1 sequence (P60570 whole entry): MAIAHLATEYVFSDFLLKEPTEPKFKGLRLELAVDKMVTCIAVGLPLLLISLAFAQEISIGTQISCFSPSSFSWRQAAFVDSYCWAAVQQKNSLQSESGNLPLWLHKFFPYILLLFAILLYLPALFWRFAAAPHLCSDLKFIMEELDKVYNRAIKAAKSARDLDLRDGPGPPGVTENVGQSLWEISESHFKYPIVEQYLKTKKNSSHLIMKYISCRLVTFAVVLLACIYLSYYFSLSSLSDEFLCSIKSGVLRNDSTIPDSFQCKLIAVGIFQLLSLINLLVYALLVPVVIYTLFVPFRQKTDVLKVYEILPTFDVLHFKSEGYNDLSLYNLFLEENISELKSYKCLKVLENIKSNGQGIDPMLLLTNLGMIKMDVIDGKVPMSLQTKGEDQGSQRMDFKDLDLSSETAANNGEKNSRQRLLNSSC

`CCCN(CCC)S(=O)(=O)c1ccc(C(O)(C(F)(F)F)C(F)(F)F)cc1` [EG-2184, 4-(1,1,1,3,3,3-hexafluoro-2-hydroxypropan-2-yl)-N,N-dipropylbenzenesulfonamide] came in with an IC50 of 0.054 µM.
In turn, `CCCN(CCC)S(=O)(=O)c1ccc(C(=O)O)cc1` [probenecid] displayed a half-maximal inhibitory concentration (IC50) of 74.6 µM.
